Assay [1] has as its system mitochondrial membrane potential (Δψm) in live PF T. brucei. Put plainly: MitoTracker monitoring of mitochondrial membrane potential. It is filed as cell-based, Trypanosoma brucei. As to conditions: 2 h; for Effect on mitochondrial membrane potential (Δψm): AA and OA 2 μM, DNP 1 mM; for Elevation of mitochondrial membrane potential (Δψm): compounds at 40 μM, MitoTracker Red/Green ratio relative to uninhibited control. The text has this:
To determine which mitochondrial complex of oxidative phosphorylation was targeted by B-THP-T compounds, their effects on the mitochondrial membrane potential (Δψm) were monitored in live PF T. brucei (Fig 6A). MitoTracker Red CMXRos, like tetramethylrhodamine and safranine, accumulates in active mitochondria and the degree of accumulation is dependent on the Δψm, however, accumulation of MitoTracker Green FM is independent of the Δψm and the ratio of red/green uptake can therefore be used to determine the Δψm normalised to the number and size of mitochondria present. […] Similarly, compounds 1 and 3 elevated the mitochondrial membrane potential (by 2-3-fold), confirming that they, like OA, reduce oxidative phosphorylation by the inhibition of the FoF1-ATP synthase.
Fig 6 Effects of compounds on mitochondrial membrane potential. PF T. brucei were incubated with inhibitors and MitoTracker Red CMXRos, which is an indicator of the mitochondrial membrane potential (Δψm). (A) MitoTracker-loaded cells were imaged to qualitatively detect differences in the Δψm. […] (B) Fluorescence of MitoTracker-loaded cells were quantified using a microplate reader and normalised to MitoTracker green fluorescence.
2 x 10^6 PF T. brucei cells were incubated in 1 mL GF-SDM-79 growth media supplemented with/without inhibitors for 2 h. B-THP-Ts were used at 40 μM, AA and OA at 2 μM, DNP at 1 mM and SHAM at 100 μM. MitoTracker Red CMXRos and MitoTracker Green FM were added to 100 nM and 1 μM respectively and incubated for a further 10 min. Cells were washed in growth medium and the MitoTracker reagents chased into the mitochondrion for 10 min in fresh growth medium supplemented with inhibitors. Cells were washed again in growth medium to remove unincorporated MitoTracker reagents, pelleted, suspended in 100 μL 4% PFA in PBS, and fixed at RT in the dark for 10 min. Fixed cells were pelleted and suspended in 100 μl PBS. Cells were transferred to poly-lysine-coated slides and mounted with DAPI-containing SlowFade mounting medium (Invitrogen). Fluorescence images were collected with a DeltaVision microscope (as detailed above) to show MitoTracker localisation and comparative intensity.
1 mL of cells at 1 x 10^7 cells/mL were labelled as above. However, instead of fixing cells they were resuspended in 200 μL growth medium and transferred to 96-well plates. Fluorescences were recorded (excitation at 540/35 nm, emission at 590/10 nm for MitoTracker Red CMXRos, and excitation at 485/20 nm, emission at 528/20 nm for MitoTracker Green FM) using a BioTek FLX800 spectrofluorimeter and Gen5 Reader Control 2.0 software, in much the same way as others have recorded previously. Background fluorescence values were subtracted from each and MitoTracker Red fluorescences normalised against their MitoTracker Green FM counterparts. Membrane potentials were then calculated relative to the uninhibited controls.

The subject of another assay is T. brucei BSF. Kind of assay: Toxicity (EC50) in bloodstream form T. brucei. It is filed as cell-based, Trypanosoma brucei. From the text:
(§1) Fig 1 Labelling and detection of B-THP-T target(s). (A) Structures of chamuvarinin and simplified analogues thereof as probes used in this study and their respective toxicity in selected cell lines. Bi-functional compound 3 contains a diazirine (blue) to cross-link the compound to its target and an alkyne handle (red) to which an azide-containing reporter probe can be added. Mono-functional compound 2 contains the diazirine to cross-link to its target but lacks the alkyne handle and cannot be appended with an azide reporter probe. Lead B-THP-T, compound 1, lacks both diazirine and alkyne. The additional functional groups on compounds 2 and 3 are minor alterations, which have little effect on inhibitor potency. (B) Overview of the in vivo pulse-chase photo-affinity labelling procedure. B-THP-T were incubated with live PF T. brucei cells and trafficked to their targets. Following UV-irradiation, only compounds containing a diazirine (i.e. compounds 2 and 3) could cross-link with target proteins. The subsequent “click reaction” appended the conjugated B-THP-T with a reporter probe as long as an alkyne handle was present (i.e. on compound 3). Refer to the experimental section for details. (C) Detection of Cy5.5-tagged proteins following photo-affinity labelling. Proteins were separated by SDS-PAGE and conjugated Cy5.5 was detected at 700 nm. Lanes 1–3 correspond to usage of compounds 1–3 respectively. Several proteins in lane 3 were conjugated with Cy5.5 via labelling with bi-functional compound 3. […]

Another assay has as its system HeLa. Kind of assay: Toxicity (EC50) in HeLa cells. It is filed as cell-based. As to conditions: Homo sapiens, footnote b, read-out: EC50 values Mammal HeLa. From the text: (§2) Fig 1 Labelling and detection of B-THP-T target(s). (A) Structures of chamuvarinin and simplified analogues thereof as probes used in this study and their respective toxicity in selected cell lines. Bi-functional compound 3 contains a diazirine (blue) to cross-link the compound to its target and an alkyne handle (red) to which an azide-containing reporter probe can be added. Mono-functional compound 2 contains the diazirine to cross-link to its target but lacks the alkyne handle and cannot be appended with an azide reporter probe. Lead B-THP-T, compound 1, lacks both diazirine and alkyne. The additional functional groups on compounds 2 and 3 are minor alterations, which have little effect on inhibitor potency. (B) Overview of the in vivo pulse-chase photo-affinity labelling procedure. B-THP-T were incubated with live PF T. brucei cells and trafficked to their targets. Following UV-irradiation, only compounds containing a diazirine (i.e. compounds 2 and 3) could cross-link with target proteins. The subsequent “click reaction” appended the conjugated B-THP-T with a reporter probe as long as an alkyne handle was present (i.e. on compound 3). Refer to the experimental section for details. (C) Detection of Cy5.5-tagged proteins following photo-affinity labelling. Proteins were separated by SDS-PAGE and conjugated Cy5.5 was detected at 700 nm. […]

The test system of a further assay is Vero. Kind of assay: Toxicity (EC50) in Vero cells. In kind it is cell-based. Particulars: Chlorocebus sabaeus, footnote b, read-out: EC50 values Mammal Vero.
Description: as §2

The next assay has as its system T. brucei PF. Kind of assay: Toxicity (EC50, cell viability) in procyclic form T. brucei. In kind it is cell-based. As to conditions: Trypanosoma brucei, live cells, 72 h incubation, footnote a.
Description: as §1
The potency of lead B-THP-T, compound 1, was determined against oxidative phosphorylation in dose-response assays in digitonin-permeabilised PF T. brucei.
Supplementary file pntd.0005886.s001.tiff: S1 Fig Dose-response of B-THP-T compounds in PF T. brucei. EC50 values were determined for compounds 1–3 in PF T. brucei. […]

As to `CCCCCC[C@H]1C(=O)O[C@H](C)[C@H](NC(=O)c2cccc(NC=O)c2O)C(=O)O[C@@H](C)[C@@H]1OC(=O)CC(C)C` [antimycin A], the “Effect on mitochondrial membrane potential (Δψm)” value in assay [1] was “decrease the Δψm”.
Still for that read-out and setting: with `O=C(O)CC(=O)O` [malonate] the entry was “decrease the Δψm”.
In the case of `C#CCNC(=O)CCC[C@H]1CC2(C[C@@H](Cn3cc([C@@H]4CCC[C@H](CCCCOCc5ccccc5)O4)nn3)O1)N=N2` [Compound 3], the EC50 (usually the concentration giving half of the maximal effect) was 13 ± 1 µM in the assay with T. brucei BSF (Trypanosoma brucei, bloodstream form, footnote b); 21.3 ± 2 µM with HeLa; 21.3 ± 2 µM in the assay on Vero; 16.1 ± 0.6 µM in the assay on T. brucei PF. Moreover, in assay [1], the “Elevation of mitochondrial membrane potential (Δψm)” value is reported as 2-3 fold.
Turning to `CCCCCC[C@H]1CCC[C@@H](Cn2cc([C@@H]3CCC[C@H](CCCCO)O3)nn2)O1` [Compound 1], in the assay with T. brucei BSF (from EC50 values of Fig 1), the “Selectivity towards T. brucei over mammalian HeLa cells” value is recorded as “only modest selectivity”. Further, the “Elevation of mitochondrial membrane potential (Δψm)” value in assay [1] is on record as 2-3 fold. In the assay with T. brucei PF, this compound came in with an EC50 of 8.4 µM.

The values above are taken from article PMC5608556, “Photo-affinity labelling and biochemical analyses identify the target of trypanocidal simplified natural product analogues” (PLoS Neglected Tropical Diseases, 2017).
